Assay results: patent US20140235863A1, “SUBSTITUTED 4-ARYLTHIAZOLES AND PROCESS OF PREPARATION THEREOF” (priority 2011, published 2014)
Values after ≈ are worked out from the molar mass of the structure shown. Values joined by “and” are separate entries in the source; they are usually repeats but may differ in a detail not shown here. Identical values can stand only once.

Legend:
M. tuberculosis H37Rv [1] = test: BACTEC-460TB radiometric assay, MIC and growth index; assay type: cell-based, Mycobacterium tuberculosis; conditions: for Mtb growth inhibition, growth index (GI) vs days: day 1 to day 11, FIG. 5; for MIC: Mycobacterium tuberculosis, H37RV, BACTEC-460TB radiometric assay, read-out: Mtb H37Rv MIC (BACTEC)
M. tuberculosis H37Rv [2] = test: Agar dilution assay (ADA), MIC; assay type: cell-based, Mycobacterium tuberculosis; conditions: for MIC / Mtb H37Rv MIC: 37° C., 4 weeks; for MIC: read-out: Mtb H37Rv MIC; for anti-TB activity relative to the drug NTZ (times better / more potent): MIC compared with NTZ MIC 52.12 μM
Vero monkey kidney cells = test: Cytotoxicity, Resazurin assay; assay type: cell-based; conditions: for cytotoxicity to Vero cells: FIG. 4; for selectivity index (SI): ratio CC50:MIC as stated in text b128 (fits BACTEC MIC); for SI (selectivity index): ratio CC50:MIC, Table 1 (agar dilution MIC)
Experimental: (§1) Cytotoxicity Studies: The compounds for cytotoxicity were tested in an in vitro model for toxicity with Vero monkey kidney cells using Resazurin assay. […] Cells were exposed to dilutions of experimental and control drugs in triplicate for […] with each compound at a range of concentrations from 100-1.56 μg/ml. […] Each well had 100 μL of the test material in serially descending concentrations. After 72 h of incubation, 10 μL of Resazurin indicator solution (0.1%) was added and incubation was continued for 4-5 h. Any color change from purple to pink or colorless was recorded as positive. Fluorescence was measured of each sample with excitation wavelength at 530 nm and emission wavelength at 590 nm using the BMG Polar Star Galaxy. The CC50 values (50% inhibitory concentrations) were calculated by plotting fluorescence values using Microsoft excel template. The data from this toxicity testing and MIC values were used to calculate a selectivity index (SI), the ratio of CC50: MIC.

[3] = Cytotoxicity, Resazurin assay; assay type: cell-based, monkey; conditions: monkey, Resazurin assay, 72 h; read-out: In vitro cytotoxicity Vero cells CC50
Experimental: as §1

[4] = test system: replicating and nonreplicating Mtb; conditions: cited from earlier work
[5] = Mycobacterium tuberculosis, H37RV, 672 h

SMILES | MIC (M. tuberculosis H37Rv [2]; [5]) | melting point | other results
COc1ccc(-c2csc(NN=C3CCCc4c(OC)cccc43)n2)cc1OC [Compound 1a, 4-(3,4-dimethoxyphenyl)-2-(2-(5-methoxy-3,4-dihydronaphthalen-1(2H)-ylidene)hydrazinyl)-thiazole] | 15.3 µM and 6.25 µg/mL | 200 °C | Mtb growth inhibition, growth index (GI) vs days (M. tuberculosis H37Rv [1]; 6.25 μM): very effective for inhibiting the Mtb growth till day 11; MIC (M. tuberculosis H37Rv [1]): 6.25 µM (≈ 2.56 µg/mL); cytotoxicity to Vero cells (Vero monkey kidney cells; Resazurin assay): failed to show any cytotoxicity; selectivity index (SI) (Vero monkey kidney cells): ≥ 39; SI (selectivity index) (Vero monkey kidney cells): ≧16; CC50 at 72 h [3]: > 244 µM
COc1cccc2c1CCCC2=NNc1nc(-c2ccc(Cl)cc2Cl)cs1 [Compound 1b, 4-(2,4-dichlorophenyl)-2-(2-(5-methoxy-3,4-dihydronaphthalen-1(2H)-ylidene)hydrazinyl)thiazole] | 29.9 µM and 12.5 µg/mL | 200 °C | anti-TB activity relative to the drug NTZ (times better / more potent) (M. tuberculosis H37Rv [2]): about 2 times
COc1cccc2c1CCCC2=NNc1nc(-c2ccc(F)cc2)cs1 [Compound 1c, 4-(4-fluorophenyl)-2-(2-(5-methoxy-3,4-dihydronaphthalen-1(2H)-ylidene)hydrazinyl)thiazole] | 17 µM and 6.25 µg/mL | 198 °C | Mtb growth inhibition, growth index (GI) vs days (M. tuberculosis H37Rv [1]; 6.25 μM): comparatively lesser effective on day 10 onwards; MIC (M. tuberculosis H37Rv [1]): 6.25 µM (≈ 2.3 µg/mL); MIC (M. tuberculosis H37Rv [2]; listed as is): 17.03 µM; CC50 (Vero monkey kidney cells; Resazurin assay, 72 h, read-out: In vitro cytotoxicity Vero cells CC50): > 300 µM; cytotoxicity to Vero cells (Vero monkey kidney cells; Resazurin assay): failed to show any cytotoxicity; selectivity index (SI) (Vero monkey kidney cells): ≥ 48; SI (selectivity index) (Vero monkey kidney cells): ≧17; CC50 at 72 h [3]: > 244 µM
COc1cccc2c1CCCC2=NNc1nc(-c2cccc([N+](=O)[O-])c2)cs1 [Compound 1d, 2-(2-(5-methoxy-3,4-dihydronaphthalen-1(2H)-ylidene)hydrazinyl)-4-(3-nitrophenyl)thiazole] | 31.7 µM and 12.5 µg/mL | 185 °C | anti-TB activity relative to the drug NTZ (times better / more potent) (M. tuberculosis H37Rv [2]): about 2 times
COc1ccc(-c2csc(NN=Cc3cn(Cc4ccc(Cl)cc4Cl)c4ccccc34)n2)cc1OC [Compound 2a, 2-(2-((1-(2,4-dichlorobenzyl)-1H-indol-3-yl)methylene)hydrazinyl)-4-(3,4-dimethoxyphenyl)thiazole] | > 12.5 µg/mL | 205 °C | Mtb H37Rv MIC (M. tuberculosis H37Rv [2]): >12.50 µg/mL
Clc1ccc(Cn2cc(C=NNc3nc(-c4ccc(Cl)cc4Cl)cs3)c3ccccc32)c(Cl)c1 [Compound 2b, 2-(2-((1-(2,4-dichlorobenzyl)-1H-indol-3-yl)methylene)hydrazinyl)-4-(2,4-dichlorophenyl)thiazole] | 22.9 µM and 12.5 µg/mL | 185 °C | –
Fc1ccc(-c2csc(NN=Cc3cn(Cc4ccc(Cl)cc4Cl)c4ccccc34)n2)cc1 [Compound 2c, 2-(2-((1-(2,4-dichlorobenzyl)-1H-indol-3-yl)methylene)hydrazinyl)-4-(4-fluorophenyl)thiazole] | > 12.5 µg/mL | 198 °C | Mtb H37Rv MIC (M. tuberculosis H37Rv [2]): >12.50 µg/mL
Fc1ccc(Nc2nc(-c3ccc(F)cc3)cs2)cc1 [Compound 6, N,4-bis(4-fluorophenyl)thiazol-2-amine] | 6.25 µM and 1.8 µg/mL | 127 °C | MIC (M. tuberculosis H37Rv [1]): 12.5 µM (≈ 3.6 µg/mL); Mtb growth inhibition, growth index (GI) vs days (M. tuberculosis H37Rv [1]; ≧12.5 μM): effectively inhibit Mtb growth till day 11; anti-TB activity relative to the drug NTZ (times better / more potent) (M. tuberculosis H37Rv [2]): about 9 times
COc1ccc(OC)c(Nc2nc(-c3ccc(F)cc3)cs2)c1 [Compound 7a, N-(2,5-dimethoxyphenyl)-4-(4-fluorophenyl)thiazol-2-amine] | > 12.5 µg/mL | 160 °C | –
COc1ccc(OC)c(Nc2nc(-c3cccc([N+](=O)[O-])c3)cs2)c1 [Compound 7b, N-(2,5-dimethoxyphenyl)-4-(3-nitrophenyl)thiazol-2-amine] | > 12.5 µg/mL | 154 °C | –
COc1ccc(-c2csc(Nc3cc(OC)ccc3OC)n2)cc1 [Compound 7c, N-(2,5-dimethoxyphenyl)-4-(4-methoxyphenyl)thiazol-2-amine] | > 12.5 µg/mL | 104 °C | –
COc1ccc(-c2csc(Nc3ccccc3C(F)(F)F)n2)cc1OC [Compound 8a, 4-(3,4-dimethoxyphenyl)-N-(2-(trifluoromethyl)phenyl)thiazol-2-amine] | > 12.5 µg/mL | 188 °C | –
Fc1ccc(-c2csc(Nc3ccccc3C(F)(F)F)n2)cc1 [Compound 8b, 4-(4-fluorophenyl)-N-(2-(trifluoromethyl)phenyl)thiazol-2-amine] | > 12.5 µg/mL | 184 °C | –
O=[N+]([O-])c1cccc(-c2csc(Nc3ccccc3C(F)(F)F)n2)c1 [Compound 8c, 4-(3-nitrophenyl)-N-(2-(trifluoromethyl)phenyl)thiazol-2-amine] | > 12.5 µg/mL | 182 °C | –
COc1ccc(-c2csc(Nc3ccccc3C(F)(F)F)n2)cc1 [Compound 8d, 4-(4-methoxyphenyl)-N-(2-(trifluoromethyl)phenyl)thiazol-2-amine] | > 12.5 µg/mL | – | –
NNC(=O)c1ccncc1 [Isoniazid (INH), Isoniazid, reference compound] | < 1 µg/mL | – | –
CC(=O)Oc1ccccc1C(=O)Nc1ncc([N+](=O)[O-])s1 [Nitazoxanide (NTZ), Nitazoxanide] | – | – | MIC ([4]; nonreplicating Mtb): 60.38 μM and 16 μg/mL
[H]/N=C(/N)N[C@H]1[C@H](O)[C@@H](O)[C@H](O[C@@H]2O[C@@H](C)[C@](O)(C=O)[C@H]2O[C@@H]2O[C@@H](CO)[C@H](O)[C@@H](O)[C@@H]2NC)[C@@H](N/C(N)=N\[H])[C@@H]1O [Streptomycin (SM), Streptomycin, reference compound] | – | – | MIC (M. tuberculosis H37Rv [1]): 6 µM (≈ 3.49 µg/mL)
O=C(Nc1ncc([N+](=O)[O-])s1)c1ccccc1O [Tizaxonide (TIZ), Tizaxonide] | – | – | MIC of reference NTZ/TIZ, Mtb H37Rv ([4]; replicating Mtb, literature value listed with the agar dilution data): 60.38 μM and 16.00 μg/mL
